# Laboratory results: ChEMBL document CHEMBL5244216, “Pyrrole: An insight into recent pharmacological advances with structure activity relationship” (Eur J Med Chem, 2018)
# Key:
# [1] = system: Mycobacterium tuberculosis; test: Antitubercular activity against Mycobacterium tuberculosis H37Rv assessed as reduction in microbial growth by broth dilution method; format: functional
# [2] = system: Rattus norvegicus; test: Antihypertensive activity in Wistar rat assessed as decrease in systolic blood pressure at 20 mg/kg, po measured after 0.5 to 2 hrs by tail cuff method; format: functional; conditions: time 0.5-2 hrs
# [3] = system: Bacillus subtilis; test: Antibacterial activity against Bacillus subtilis assessed as reduction in bacterial growth by broth microdilution method; format: functional, organism-based
# [4] = system: Escherichia coli; test: Antibacterial activity against Escherichia coli assessed as reduction in bacterial growth by broth microdilution method; format: functional, organism-based
# [5] = system: Staphylococcus auricularis; test: Antibacterial activity against Staphylococcus auricularis assessed as reduction in bacterial growth by broth microdilution method; format: functional, organism-based
# [6] = system: Klebsiella pneumoniae; test: Antibacterial activity against Klebsiella pneumoniae assessed as reduction in bacterial growth by broth microdilution method; format: functional, organism-based
# [7] = system: Pseudomonas aeruginosa; test: Antibacterial activity against Pseudomonas aeruginosa assessed as reduction in bacterial growth by broth microdilution method; format: functional, organism-based
# [8] = system: Staphylococcus aureus; test: Antibacterial activity against Staphylococcus aureus 22 assessed as zone of inhibition at 800 ug/mL by disk diffusion method; format: functional; conditions: read-out: IZ
# [9] = system: Klebsiella pneumoniae; test: Antibacterial activity against Klebsiella pneumoniae assessed as zone of inhibition at 800 ug/mL by disk diffusion method; format: functional; conditions: read-out: IZ
# [10] = system: Bacillus subtilis; test: Antibacterial activity against Bacillus subtilis MTCC 121 assessed as zone of inhibition at 800 ug/mL by disk diffusion method; format: functional; conditions: read-out: IZ
# [11] = Toxicity in Nilaparvata lugens assessed as mortality at 0.8 mg/L relative to control; conditions: at 0.8 µg/mL
# [12] = biological target: Tyrosine-protein kinase Lck (Homo sapiens, UniProt P06239); test: Inhibition of human recombinant Lck
# Tyrosine-protein kinase Lck, sequence (P06239 whole entry): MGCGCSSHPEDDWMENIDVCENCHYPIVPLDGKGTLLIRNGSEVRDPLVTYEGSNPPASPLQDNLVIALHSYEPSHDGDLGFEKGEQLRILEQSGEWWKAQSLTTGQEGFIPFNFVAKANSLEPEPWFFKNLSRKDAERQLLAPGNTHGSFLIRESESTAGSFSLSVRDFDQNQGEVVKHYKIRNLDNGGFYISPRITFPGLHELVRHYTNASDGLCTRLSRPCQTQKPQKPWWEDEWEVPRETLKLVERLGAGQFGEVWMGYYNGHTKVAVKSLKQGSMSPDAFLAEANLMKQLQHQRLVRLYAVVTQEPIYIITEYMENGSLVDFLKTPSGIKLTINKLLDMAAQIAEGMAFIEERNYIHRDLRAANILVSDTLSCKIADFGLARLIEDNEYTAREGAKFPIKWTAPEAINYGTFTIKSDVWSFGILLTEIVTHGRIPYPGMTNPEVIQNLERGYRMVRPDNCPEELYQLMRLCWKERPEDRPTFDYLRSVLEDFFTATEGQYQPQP
# [13] = system: Mycobacterium tuberculosis; test: Antitubercular activity against Mycobacterium tuberculosis 103471 assessed as reduction in bacterial growth; format: functional
# [14] = system: Human immunodeficiency virus 1; test: Antiviral activity against HIV-1; format: functional, organism-based
# [15] = biological target: Cannabinoid receptor 2 (Homo sapiens, UniProt P34972); test: Binding affinity to human recombinant CB2 receptor
# Cannabinoid receptor 2, sequence (P34972 whole entry): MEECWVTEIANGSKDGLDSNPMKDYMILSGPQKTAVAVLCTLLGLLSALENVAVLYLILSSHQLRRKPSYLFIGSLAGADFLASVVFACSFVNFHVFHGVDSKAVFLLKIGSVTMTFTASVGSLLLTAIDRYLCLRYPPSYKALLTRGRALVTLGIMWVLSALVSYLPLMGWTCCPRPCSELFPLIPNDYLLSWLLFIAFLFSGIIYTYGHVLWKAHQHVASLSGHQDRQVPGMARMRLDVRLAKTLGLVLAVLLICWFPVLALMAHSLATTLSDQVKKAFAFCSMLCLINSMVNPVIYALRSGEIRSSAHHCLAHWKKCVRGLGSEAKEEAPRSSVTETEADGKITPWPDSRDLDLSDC
# [16] = biological target: Cannabinoid receptor 1 (Rattus norvegicus, UniProt P20272); test: Binding affinity to rat CB1 receptor
# Cannabinoid receptor 1, sequence (P20272 whole entry): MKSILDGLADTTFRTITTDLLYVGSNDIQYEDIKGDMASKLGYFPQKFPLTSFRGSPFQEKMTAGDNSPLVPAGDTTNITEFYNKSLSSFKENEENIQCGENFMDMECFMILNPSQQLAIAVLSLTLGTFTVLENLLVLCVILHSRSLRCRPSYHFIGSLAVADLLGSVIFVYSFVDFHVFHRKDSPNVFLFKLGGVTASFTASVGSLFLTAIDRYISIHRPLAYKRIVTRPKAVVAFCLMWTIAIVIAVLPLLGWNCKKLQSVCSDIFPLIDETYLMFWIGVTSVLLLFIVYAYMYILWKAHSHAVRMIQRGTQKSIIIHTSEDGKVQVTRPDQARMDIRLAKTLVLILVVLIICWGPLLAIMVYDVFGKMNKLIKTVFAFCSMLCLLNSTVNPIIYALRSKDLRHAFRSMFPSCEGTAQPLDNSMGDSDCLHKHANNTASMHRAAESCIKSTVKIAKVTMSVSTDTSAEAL
# [17] = system: Mycobacterium tuberculosis; test: Antitubercular activity against Mycobacterium tuberculosis H37Rv assessed as reduction in bacterial growth by microplate alamar blue assay; format: functional
# [18] = Inhibition of maize HD1-B; design: species or system Zea mays
# [19] = Inhibition of maize HD2; design: species or system Zea mays
# [20] = Inhibition of maize HD1-A; design: species or system Zea mays
# [21] = system: Rattus norvegicus; test: Anti-inflammatory activity against carrageenan-induced acute paw edema in Wistar albino rat at 100 mg/kg assessed as inhibition of paw edema volume incubated for 3 hrs by Plethysmometric analysis relative to control; format: functional; design: scale not given: the % may be the effect or the level left
# [22] = system: Human immunodeficiency virus; test: Antiviral activity against HIV-CBL 20 infected in MT-4 cells assessed as viral replication measured after 4 days by ELISA; format: functional, organism-based; conditions: Human immunodeficiency virus 1, CBL 20, MT4, 96 h
# [23] = system: Rattus norvegicus; test: Anti-inflammatory activity against carrageenan-induced acute paw edema in Wistar albino rat at 10 mg/kg assessed as inhibition of paw edema volume incubated for 3 hrs by Plethysmometric analysis relative to control; format: functional; design: scale not given: the % may be the effect or the level left
# [24] = system: Rattus norvegicus; test: Anti-inflammatory activity against carrageenan-induced acute paw edema in Wistar albino rat at 10 mg/kg assessed as inhibition of paw edema incubated for 3 hrs by Plethysmometric analysis relative to control; format: functional; design: scale not given: the % may be the effect or the level left
# [25] = system: Rattus norvegicus; test: Anti-inflammatory activity against carrageenan-induced acute paw edema in Wistar albino rat at 10 mg/kg assessed as inhibition of paw edema incubated for 5 hrs by Plethysmometric analysis relative to control; format: functional; design: scale not given: the % may be the effect or the level left
# [26] = system: Escherichia coli; test: Antibacterial activity against Escherichia coli K12 assessed as zone of inhibition at 800 ug/mL by disk diffusion method; format: functional; conditions: read-out: IZ
# [27] = Cytotoxicity activity against human Eca-109 cells assessed as reduction in cell viability measured after 48 hrs by MTT assay; format: toxicity, cell-based
# [28] = Cytotoxicity activity against human SMMC-7721 cells assessed as reduction in cell viability measured after 48 hrs by MTT assay; format: toxicity, cell-based
# [29] = Cytotoxicity activity against human PC-3 cells assessed as reduction in cell viability measured after 48 hrs by MTT assay; format: toxicity, cell-based
# [30] = system: MDA-MB-231; test: Antiproliferative activity against human MDA-MB-231 cells by SRB assay
# [31] = Cytotoxicity activity against human A549 cells assessed as reduction in cell viability measured after 48 hrs by MTT assay; format: toxicity, cell-based
# [32] = Cytotoxicity activity against human MOLT-4 cells assessed as reduction in cell viability measured after 72 hrs by MTT assay; format: toxicity, cell-based
# [33] = Cytotoxicity activity against human MCF7 cells assessed as reduction in cell viability measured after 72 hrs by MTT assay; format: toxicity, cell-based
# [34] = Cytotoxicity activity against human HL-60 cells assessed as reduction in cell viability measured after 72 hrs by MTT assay; format: toxicity, cell-based
structure (smiles),measurement,setting,value
CC[C@@H](CO)NCCN[C@@H](CC)CO [ETHAMBUTOL],MIC,[1],0.5 µg/mL
CCOc1cc(C2OC(c3ccc(-n4cccc4)cc3)=NN2C(C)=O)ccc1O (configuration not stated),MIC,[1],0.2 µg/mL
CCOC(=O)c1cc(-c2ccc([N+](=O)[O-])cc2)n(-c2ccc(C3=NNC(=O)CC3)cc2)c1C,Activity,[2],70.3 mmHg
CN(C)[C@@H]1C(O)=C(C(N)=O)C(=O)[C@@]2(O)C(O)=C3C(=O)c4c(O)cccc4[C@@](C)(O)[C@H]3C[C@@H]12 [TETRACYCLINE],IC50,[3],1.25 µM
same,IC50,[4],10 µM
same,IC50,[5],10 µM
same,IC50,[6],0.312 µM
same,IC50,[7],1.25 µM
O=C(O)c1cn(C2CC2)c2cc(N3CCNCC3)c(F)cc2c1=O [CIPROFLOXACIN],zone of inhibition at 800 µg/mL,[8],20 mm
same,zone of inhibition at 800 µg/mL,[9],23 mm
same,zone of inhibition at 800 µg/mL,[10],18 mm
O=[N+]([O-])NC1=NCCN1Cc1ccc(Cl)nc1 [IMIDACLOPRID],mortality,[11],40%
NC(=O)c1c(-c2ccc(Oc3ccccc3)cc2)[nH]c(C(=O)c2c(F)cccc2F)c1N,IC50,[12],0.0011 µM
Cc1ccc(C)n1-c1ccc(C(=O)n2[nH]c(=O)c3ccccc3c2=O)cc1,MIC,[1],0.4 µg/mL
Cc1c(CN2CCSCC2)cc(-c2ccccc2F)n1-c1ccccc1F,MIC,[13],1 µg/mL
CCCCc1c(COC(N)=O)cn(Cc2ccncc2)c1Sc1cc(Cl)cc(Cl)c1,EC50,[14],0.007 µM
CCCCCn1c(C)c(Br)c(C(=O)c2cccc3ccccc23)c1C,EC50,[15],0.0068 µM
same,EC50,[16],0.0133 µM
O=C(N/N=C/c1ccc(C(c2cccc([N+](=O)[O-])c2)c2ccc(/C=N/NC(=O)c3ccncc3)[nH]2)[nH]1)c1ccncc1,MIC,[17],7.9 µg/mL
CC(/C=C/C(=O)NO)=C\[C@@H](C)C(=O)c1ccc(N(C)C)cc1 [TRICHOSTATIN],IC50,[18],0.0004 µM
same,IC50,[19],0.007 µM
same,IC50,[20],0.0008 µM
O=C(O)Cn1c(C(=O)O)c(C(=O)c2cccs2)c2sc(C(=O)O)cc21,Activity,[21],36%
NNc1nncc2ccccc12 [HYDRALAZINE],Activity,[2],83.59 mmHg
CO[C@H]1/C=C/O[C@@]2(C)Oc3c(C)c(O)c4c(O)c(c(/C=N/N5CCN(C)CC5)c(O)c4c3C2=O)NC(=O)/C(C)=C\C=C\[C@H](C)[C@H](O)[C@@H](C)[C@@H](O)[C@@H](C)[C@H](OC(C)=O)[C@@H]1C [RIFAMPIN],MIC,[13],0.3 µg/mL
same,MIC,[1],0.4 µg/mL
CCOC(=O)c1cccn1S(=O)(=O)c1ccccc1[N+](=O)[O-],EC50,[22],15.1 µM
CN1C(C(=O)Nc2ccccn2)=C(O)c2ccccc2S1(=O)=O [PIROXICAM],Activity,[23],59%
O=C([O-])Cc1ccccc1Nc1c(Cl)cccc1Cl.[Na+] [DICLOFENAC SODIUM],Activity,[23],68%
COc1ccc2c(c1)c(CC(=O)O)c(C)n2C(=O)c1ccc(Cl)cc1 [INDOMETHACIN],Activity,[24],74.82%
same,Activity,[25],80.32%
Cc1c[nH]c(C(=O)N/N=C(/N=N/c2ccccc2)c2ccccc2O)c1C,IC50,[3],460 µM
same,IC50,[4],15.6 µM
same,IC50,[5],460 µM
same,IC50,[6],15.6 µM
same,IC50,[7],15.6 µM
O=C(Nc1nnc(-c2ccccc2)s1)c1c[nH]cc1-c1ccc([N+](=O)[O-])cc1,Activity,[24],76.24%
same,Activity,[25],78.62%
NNC(=O)c1ccncc1 [ISONIAZID],MIC,[13],0.25 µg/mL
same,MIC,[17],7.9 µg/mL
same,MIC,[1],0.2 µg/mL
CCCCCCC(O)C/C=C/CCCCCCCCC(=O)Nn1c(C)ccc1C (configuration not stated),zone of inhibition at 800 µg/mL,[8],18 mm
same,zone of inhibition at 800 µg/mL,[9],20 mm
same,zone of inhibition at 800 µg/mL,[26],21 mm
same,zone of inhibition at 800 µg/mL,[10],19 mm
CN1C(=O)C(c2ccc[nH]2)=C(c2c[nH]c3ccc(Br)cc23)C1=O,IC50 at 48 h,[27],6.21 µM
same,IC50 at 48 h,[28],29.7 µM
same,IC50 at 48 h,[29],2.16 µM
CCOc1c([N+](=O)[O-])c2n(c1C)CCN2Cc1cnc(Cl)s1,mortality,[11],50%
CC(C(=O)c1cc(/C=C/C(=O)NO)n(C)c1)c1ccccc1 (configuration not stated),IC50,[18],0.015 µM
same,IC50,[19],0.112 µM
same,IC50,[20],0.028 µM
COc1cc2c(c(OC)c1OC)-c1ccc(OC)c(=O)cc1[C@@H](NC(C)=O)CC2 [COLCHICINE],IC50,[30],2 µM
O=C1NC(=O)C(c2c[nH]c3ccccc23)=C1c1c[nH]c2ccccc12 [RO-316233],IC50 at 48 h,[27],15.9 µM
same,IC50 at 48 h,[28],13.2 µM
same,IC50 at 48 h,[29],10.3 µM
same,IC50 at 48 h,[31],4.14 µM
COC(=O)c1c(C2C(=O)N(C)C(=O)N(C)C2=O)c(-c2ccccc2)n(-c2ccc(OC)c(S(=O)(=O)N3CCOCC3)c2)c1C(=O)OC,IC50 at 72 h,[32],25.5 µM
same,IC50 at 72 h,[33],39 µM
same,IC50 at 72 h,[34],30.6 µM
NC(=O)N1C(=O)/C(=C(\[O-])c2cccs2)c2cc(Cl)ccc21.[Na+] [TENIDAP SODIUM],Activity,[23],60%
CCCC/C=C/CCC(O)CCCCCCCC(=O)Nn1c(C)ccc1C (configuration not stated),zone of inhibition at 800 µg/mL,[8],20 mm
same,zone of inhibition at 800 µg/mL,[9],21 mm
same,zone of inhibition at 800 µg/mL,[26],22 mm
same,zone of inhibition at 800 µg/mL,[10],18 mm
O=[N+]([O-])c1ccccc1S(=O)(=O)c1ccccc1,EC50,[22],3.4 µM
CN[C@@H]1[C@H](O[C@H]2[C@H](O[C@H]3[C@H](O)[C@@H](O)[C@H](N=C(N)N)[C@@H](O)[C@@H]3N=C(N)N)O[C@@H](C)[C@]2(O)C=O)O[C@@H](CO)[C@H](O)[C@H]1O [STREPTOMYCIN],MIC,[13],0.5 µg/mL
